Test results: patent publication US20140314686A1, “POLYPHENOL/FLAVONOID COMPOSITIONS AND METHODS OF FORMULATING ORAL HYGIENIC PRODUCTS” (API Genesis, LLC, priority 2013, published 2014)
Values after ≈ are worked out from the molar mass of the structure shown.

Columns and labels:
[1] = EGCG retention in saliva after brushing with alkaline EGCG toothpaste (colour on alkalizing); type: in vivo, human; conditions: PeroxiCare toothpaste with 0.1 wt. % EGCG and 0.1 wt. % ascorbic acid, saliva after brushing and rinsing
[2] = Solubility in PS80 via the thermal processing method (polyphenol/surfactant concentrate); conditions: for solubility: 20 °C, organic solvent or mixture; for PS80 Solution Temp.: temperature of complete solubilization in PS80
Procedure: The molar ratio of active agent (polyphenol) to solubilizing agent (surfactant) is typically 1:2 to 1:5, and at times much greater, e.g. 1:2 to 1:20 depending on the active agent/surfactant combination.
Apigenin/Polysorbate 80 (PS80) formulations can be made as follows: • Apigenin powder and PS80 are mixed in the ratio from about 5 to 10 wt. % of apigenin to 95 to 90 wt. % PS80.
All solubility tests were conducted with 20 ml of PS80 contained within 80 ml Pyrex glass beakers.

[3] = Solubilization in Listerine mouth rinse via sodium salt and pH adjustment; type: physicochemical
Procedure: 100 grams of the Listerine® Resveratrol Containing Mouth Rinse formulation was prepared as follows: • 1. 98.4 grams of the Listerine® caramel colored mouth rinse was added to a 300 ml Pyrex glass beaker. […] About 0.2 grams of fine NaOH crystals were added to the mixture from Step 2 and thoroughly mixed. A uniformly caramel colored blend resulted with a measured pH of ˜10. […] The pH the mixture from Step 3 was adjusted to a pH 6.5 by the addition of about 0.2 grams of citric acid crystals. […] • 1. 98.6 grams of the Listerine® caramel colored mouthrinse was added to a 300 ml Pyrex glass beaker. […] About 0.2 grams of fine NaOH crystals were added to the mixture from Step 2 and thoroughly mixed. A uniformly caramel colored blend resulted with a measured pH of ˜10. […] The pH the mixture from Step 2 was adjusted to a pH 8 by the addition of about 0.2 grams of citric acid crystals.

[4] = pH required for a stable aqueous microemulsion with nonionic surfactants; type: physicochemical; conditions: nonionic surfactants Polysorbate 80 and Cremophor RH40
Excerpt: In one embodiment, a flavonoid/polyphenol microemulsion can be made as follows: • The mixing of a flavonoid/polyphenol with an alkali metal component (e.g., alkali metal hydroxide(s) and/or alkaline metal salt(s)) to form an alkali metal flavonoid/polyphenol salt within an aqueous solution. • Adding a surfactant in the ratio from about 5 to 20 wt. % of the flavonoid/polyphenol to 95 to 80 wt. % of a surfactant; preferable a nonionic surfactant. • This mixture is thoroughly stirred to form a uniform clear solution. • Adjusting (e.g., acidifying) the alkali metal flavonoid/polyphenol salt with an agent (e.g., an acidic agent such as acetic acid and/or hydrochloric acid) to a pH level required to form a clear and stable microemulsion.
Stable microemulsions with apigenin and the nonionic surfactants, Polysorbate 80 and Cremophor RH40, were achieved provided a pH level of 8.0 to 8.5 was maintained. For luteolin, it as determined that a pH of 7 was required to maintain a stable aqueous microemulsion; and for resveratrol, a pH of >4.5 to 7.5.

[5] = Stability of soluble flavone sodium salts in bicarbonate/peroxide dentifrice; type: physicochemical; conditions: dentifrice with sodium bicarbonate, peroxide and peroxide stabilizer, pH ~10-10.5
Procedure: It was experimentally determined that the toothpaste formulations containing both sodium bicarbonate and sodium carbonate peroxide together with stabilizing polymer formulations had pHs of ˜10-10.5. When aglycone flavone (i.e., apigenin and luteolin) powders were added to dentifrices including sodium bicarbonate, sodium bicarbonate peroxide and a peroxide stabilizer, it was also determined that soluble flavone sodium salts were formed that were stable in these highly oxidative peroxide compositions. The presence of stable soluble alkali metal flavone salts with highly anti-oxidant and anti-inflammatory properties in an emulsion formulation was totally unanticipated since aglycone flavones are prone to oxidative decomposition.

solubility (Solubility in water; water, 20 °C) [mg/mL] | solubility ([2]; Polysorbate 80 (PS80)) [mg/mL] | PS80 Solution Temp. [2] [°C] | SMILES | also measured
~25 (≈ 54500 µM) | 50 | ~150 | O=C(O[C@@H]1Cc2c(O)cc(O)cc2O[C@@H]1c1cc(O)c(O)c(O)c1)c1cc(O)c(O)c(O)c1 [Epigallocatechin Gallate (EGCG), Epigallocatechin gallate] | retention in saliva (red/brown color on alkalizing saliva to pH ~10.5) [1]: retained
0.04 (≈ 147 µM) | 50 | ~280 | O=C1C[C@@H](c2ccc(O)cc2)Oc2cc(O)cc(O)c21 [Naringenin] | –
0.08 (≈ 315 µM) | 50 | ~140 | O=c1cc(-c2ccccc2)oc2cc(O)cc(O)c12 [Chrysin] | –

The next lines start with the compound.

SMILES | solubility (Solubility in water; water, 20 °C) [mg/mL] | solubility ([2]; Polysorbate 80 (PS80)) [mg/mL] | PS80 Solution Temp. [2] [°C] | also measured
O=c1cc(-c2ccc(O)c(O)c2)oc2cc(O)cc(O)c12 [Luteolin, 3′,4′,5,7-tetrahydroxyflavone] | – | – | – | concentration in transparent solution ([3]; NaOH to pH ~10, citric acid to pH 8): 1500 µg/mL; pH level for a stable aqueous microemulsion [4]: 7; stability of soluble flavone sodium salt in oxidative peroxide composition [5]: stable
Oc1ccc(C=Cc2cc(O)cc(O)c2)cc1 [Resveratrol, resveratrol] | – | – | – | concentration in transparent solution ([3]; NaOH to pH ~10, citric acid to pH 6.5): 1200 µg/mL
O=c1cc(-c2ccc(O)cc2)oc2cc(O)cc(O)c12 [Apigenin, 4′,5,7,-trihydroxyflavone] | – | – | – | stability of soluble flavone sodium salt in oxidative peroxide composition [5]: stable; concentration of stable concentrate in PS80 ([2]; 5.0 wt. % in PS80, heated approaching 300 degree C, cooled to ambient): 50000 µg/mL
O.Oc1cc(O)c2c(c1)O[C@H](c1ccc(O)c(O)c1)[C@@H](O)C2 [Catechin] | – | – | ~210 | Water Solubility (Solubility in water; at 20° C.): ~5 mg/mL; PS80 Solubility ([2]; at 20° C., 20 ml PS80, not the maximum solubility levels in PS80): 50 mg/mL
O=c1c(-c2ccc(O)cc2)coc2cc(O)cc(O)c12 [Genistein] | – | – | ~220 | solubility (Solubility in water; 20 °C, water): 0.12 mg/mL (≈ 444 µM); solubility [2]: 50 mg/mL
